For seven compounds, GI50 and IC50 results are on record in US10407423B2, “Compounds as inhibitors of DNA methyltransferases” (FUNDACIÓN PARA LA INVESTIGACIÓN MÉDICA APLICADA, priority 2015, dated 2019).

Experiment [1] deals with PLC/PRF/5 cells (hepatocellular carcinoma). Briefly: Cell proliferation assay (CellTiter 96 Aqueous One), PLC/PRF/5. Type of experiment: cell-based. The conditions noted are these: PLC/PRF/5 (HCC), 48 hours of treatment. Here is the method: (§1) Cell proliferation was analyzed after 48 hours of in vitro treatment using the CellTiter 96 Aqueous One Solution Cell Proliferation Assay (Promega, Madison, W). This is a colorimetric method for determining the number of viable cells in proliferation.
(§2) For the assay, suspension cells were cultured by triplicate at a density of 1×10^6 cells/ml in 96-well plates (100.000 cells/well, 100 μl/well), except for OCI-Ly3 and OCI-Ly10 cell lines which were cultured at a density of 0.5×10^6 cells/ml (50,000 cells/well, 100 μl/well) and for HepG2, Hep3B and PLC/PRF/5 cell lines which were cultured at a density of 3000 cells/well, 100 μl/well). Adherent cells were obtained from 80-90% confluent flasks and 100 μl of cells were seeded at a density of 5000 cells/well in 96-well plates by triplicate. Before addition of the compounds, adherent cells were allowed to attach to the bottom of the wells for 12 hours. In all cases, only the 60 inner wells were used to avoid any border effects.
(§3) After 48 hours of treatment, plates with suspension cells were centrifuged at 800 g for 10 minutes and medium was removed. The plates with adherent cells were flicked to remove medium. Then, cells were incubated with 100 μl/well of medium and 20 μl/well of CellTiter 96 Aqueous One Solution reagent. After 1-3 hours of incubation at 37° C., absorbance was measured at 490 nm in a 96-well plate reader. The background absorbance was measured in wells with only cell line medium and solution reagent. Data was calculated as a percentage of total absorbance of treated cell/absorbance of non treated cells.
(§4) These cancer cell lines and primary cultures correspond to acute lymphocytic leukemia (ALL), CEMO-1, to activated B-cell-like diffuse large B-cell lymphoma (ABC-DLBCL), OCI-Ly3 and OCI-Ly10 and to hepatocellular carcinoma cells (HCC), HepG2, Hep3B and PLC/PRF/5.

The subject of experiment [2] is OCI-Ly10 cells (ABC-DLBCL). Briefly: Cell proliferation assay (CellTiter 96 Aqueous One), OCI-Ly10. Particulars: Homo sapiens, 48 hours of treatment. The experiment is classed as cell-based. On the procedure:
as §1
as §2, with “In all cases, only the 60 inner wells were used to avoid any border effects.” left out
(§5) After 48 hours of treatment, plates with suspension cells were centrifuged at 800 g for 10 minutes and medium was removed. […] After 1-3 hours of incubation at 37° C., absorbance was measured at 490 nm in a 96-well plate reader. The background absorbance was measured in wells with only cell line medium and solution reagent. Data was calculated as a percentage of total absorbance of treated cell/absorbance of non treated cells. […]

The subject of experiment [3] is Hep3B cells (hepatocellular carcinoma). Briefly: Cell proliferation assay (CellTiter 96 Aqueous One), Hep3B. Type of experiment: cell-based. Particulars: Hep3B (HCC), 48 hours of treatment. On the procedure: as §1, §2, §3, §4
Experiment [4] deals with OCI-Ly3 cells (ABC-DLBCL). Briefly: Cell proliferation assay (CellTiter 96 Aqueous One), OCI-Ly3. Type of experiment: cell-based. The conditions noted are these: Homo sapiens, 48 hours of treatment. Here is the method:
as §1
as §2, with “In all cases, only the 60 inner wells were used to avoid any border effects.” left out
as §5

For another experiment, the target named is human DNMT1 (Homo sapiens (Human), UniProt P26358). Briefly: DNMT1 enzyme activity assay (TR-FRET, EPIgeneous methyltransferase assay). The experiment is classed as biochemical. The conditions noted are these: 15 minutes at 37° C. On the procedure:
DNMT1 Enzyme Activity Assay
The biochemical assay to measure DNMT1 enzyme activity relies on time-resolved fluorescence energy transfer (TR-FRET) between lumi4-Tb (donor) and d2 (acceptor) using the EPlgeneous methyltransferase assay (CisBio Cat#62SAHPEB). TR-FRET is observed when antibody specific to S-adenosylhomocysteine labeled with Lumi4-Tb is incubated with d2-labeled S-adenosylhomocysteine. TR-FRET signal is inversely proportional to the concentration of SAH, product of DNMT1 enzyme activity, in the sample. The human DNMT1 was obtained from Reaction Biology Corp. (Cat# DMT-21-124).
Enzyme activity assay was carried out in a white 384-well plate in a final volume of 20 μl, as follow: • 4 μl of vehicle or studied compound 2.5× concentrated prepared in assay buffer (50 mM Tris-HCl, 1 mM EDTA, 1 mM DTT, 0.1% Triton X-100, 5% glycerol pH 7.5). Final percentage of DMSO was 0.5%. • 2 μl of […] DNMT1 enzyme diluted in assay buffer. Final concentration was 20 nM. • Start the reaction by adding 4 μl of substrate mixture containing 1 μM S-adenosylmethionine and 1 μM poly-deoxy inosine poly-deoxy cytosine (pdI-pdC) DNA. • Reaction was carried out during 15 minutes at 37° C. • Enzyme activity was stopped by adding 2 μl of buffer one of the EPIgeneous methyltransferase assay. • After 10 minutes at room temperature, it was added 4 μl of antibody specific to S-adenosylhomocysteine labeled with Lumi4-Tb 50× diluted in buffer two of the EPIgeneous methyltransferase assay. • Add 4 μl of d2-labeled S-adenosylhomocysteine 31× diluted in buffer two of the EPIgeneous methyltransferase assay. • Read the plate after 1 hour of incubation at room temperature.
(§6) For each well, fluorescence was measured at 620 nm and 665 nm. A ratio (665 nm/620 nm) was then calculated in order to minimize medium interferences. Positive control was obtained in the presence of the vehicle of the compounds. Negative control was obtained in the absence of G9a enzyme activity. Calculated IC50 values were determined using GraphPrism using 4-parameters inhibition curve.

Experiment [5] deals with HepG2 cells (hepatocellular carcinoma). Briefly: Cell proliferation assay (CellTiter 96 Aqueous One), HepG2. The experiment is classed as cell-based. The conditions noted are these: HepG2 (HCC), 48 hours of treatment. Here is the method:
as §1, §2, §3, §4

The subject of experiment [6] is CEMO-1 cells (acute lymphocytic leukemia, ALL). Briefly: Cell proliferation assay (CellTiter 96 Aqueous One), CEMO-1. The experiment is classed as cell-based. The conditions noted are these: CEMO-1 (ALL), 48 hours of treatment. On the procedure:
as §1, §2, §3, §4

The target of a further experiment is human G9a enzyme (Homo sapiens (Human), UniProt Q96KQ7). Briefly: G9a enzyme activity assay (TR-FRET). The experiment is classed as biochemical. The conditions noted are these: 1 hour at room temperature. On the procedure: G9a Enzyme Activity Assay
The biochemical assay to measure G9a enzyme activity relies on time-resolved fluorescence energy transfer (TR-FRET) between europium cryptate (donor) and XL665 (acceptor). TR-FRET is observed when biotinylated histone monomethyl-H3K9 peptide is incubated with cryptate-labeled anti-dimethyl-histone H3K9 antibody (CisBio Cat#61KB2KAE) and streptavidin XL665 (CisBio Cat#610SAXLA), after enzymatic reaction of G9a.
The human G9a enzyme expressed in a baculovirus infected Sf9 cell expression system was obtained from BPS Biosciences (Cat. #51001). Enzyme activity assay was carried out in a white 384-well plate in a final volume of 20 μl, as follow: • 4 μl of vehicle or studied compound 2.5× concentrated prepared in assay buffer (50 mM Tris-HCl, 10 mM NaCl, 4 mM DTT, 0.01% Tween-20 pH9). Final percentage of DMSO was 0.5%. • 2 μl of 1 nM G9a enzyme diluted in assay buffer. Final concentration was 0.2 nM. • Start the reaction by adding 4 μl of substrate mixture containing 20 μM S-adenosylmethionine and 40 nM biotinylated histone monomethyl-H3K9 peptide. • Reaction was carried out during 1 hour at room temperature. • Enzyme activity was stopped by adding 5 μl of cryptate-labeled anti-dimethyl-histone H3K9 antibody. Final concentration 150 nM. • Then, add 5 μl of streptavidin XL665 beads. Final concentration of 16 μM. • Read the plate after 1 hour of incubation at room temperature.
as §6

Chain of human G9a enzyme (Q96KQ7 whole entry): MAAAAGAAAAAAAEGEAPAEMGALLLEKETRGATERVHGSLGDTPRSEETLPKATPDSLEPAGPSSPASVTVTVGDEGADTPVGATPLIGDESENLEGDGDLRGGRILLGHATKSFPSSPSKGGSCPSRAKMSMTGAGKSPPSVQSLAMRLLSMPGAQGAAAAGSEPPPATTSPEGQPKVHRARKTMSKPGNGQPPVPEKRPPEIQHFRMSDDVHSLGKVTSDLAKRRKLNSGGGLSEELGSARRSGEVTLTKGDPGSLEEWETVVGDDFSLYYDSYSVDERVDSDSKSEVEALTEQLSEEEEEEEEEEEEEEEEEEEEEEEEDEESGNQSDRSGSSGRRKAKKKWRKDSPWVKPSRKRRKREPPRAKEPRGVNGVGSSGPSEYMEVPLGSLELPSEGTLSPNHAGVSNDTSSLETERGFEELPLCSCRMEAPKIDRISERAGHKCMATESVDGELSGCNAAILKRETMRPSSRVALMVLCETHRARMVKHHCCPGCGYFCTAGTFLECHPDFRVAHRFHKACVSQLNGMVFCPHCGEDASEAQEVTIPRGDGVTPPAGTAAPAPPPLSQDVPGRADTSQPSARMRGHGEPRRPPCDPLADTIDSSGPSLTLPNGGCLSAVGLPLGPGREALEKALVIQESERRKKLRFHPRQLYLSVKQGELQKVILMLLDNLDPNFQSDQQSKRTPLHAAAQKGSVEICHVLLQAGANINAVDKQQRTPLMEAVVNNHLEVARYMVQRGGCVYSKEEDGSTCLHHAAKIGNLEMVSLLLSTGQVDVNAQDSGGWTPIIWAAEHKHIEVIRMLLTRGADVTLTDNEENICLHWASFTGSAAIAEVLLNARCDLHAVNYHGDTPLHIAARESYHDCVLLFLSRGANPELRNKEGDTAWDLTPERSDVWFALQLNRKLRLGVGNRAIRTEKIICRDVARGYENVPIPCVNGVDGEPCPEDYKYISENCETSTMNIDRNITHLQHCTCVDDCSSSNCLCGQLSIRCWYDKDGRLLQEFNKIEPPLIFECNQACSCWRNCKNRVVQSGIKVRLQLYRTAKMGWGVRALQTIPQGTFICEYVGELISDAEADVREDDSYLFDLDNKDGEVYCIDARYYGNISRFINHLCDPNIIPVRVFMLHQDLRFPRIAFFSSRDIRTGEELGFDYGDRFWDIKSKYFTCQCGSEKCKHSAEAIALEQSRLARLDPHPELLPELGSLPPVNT
Chain of human DNMT1 (P26358 whole entry): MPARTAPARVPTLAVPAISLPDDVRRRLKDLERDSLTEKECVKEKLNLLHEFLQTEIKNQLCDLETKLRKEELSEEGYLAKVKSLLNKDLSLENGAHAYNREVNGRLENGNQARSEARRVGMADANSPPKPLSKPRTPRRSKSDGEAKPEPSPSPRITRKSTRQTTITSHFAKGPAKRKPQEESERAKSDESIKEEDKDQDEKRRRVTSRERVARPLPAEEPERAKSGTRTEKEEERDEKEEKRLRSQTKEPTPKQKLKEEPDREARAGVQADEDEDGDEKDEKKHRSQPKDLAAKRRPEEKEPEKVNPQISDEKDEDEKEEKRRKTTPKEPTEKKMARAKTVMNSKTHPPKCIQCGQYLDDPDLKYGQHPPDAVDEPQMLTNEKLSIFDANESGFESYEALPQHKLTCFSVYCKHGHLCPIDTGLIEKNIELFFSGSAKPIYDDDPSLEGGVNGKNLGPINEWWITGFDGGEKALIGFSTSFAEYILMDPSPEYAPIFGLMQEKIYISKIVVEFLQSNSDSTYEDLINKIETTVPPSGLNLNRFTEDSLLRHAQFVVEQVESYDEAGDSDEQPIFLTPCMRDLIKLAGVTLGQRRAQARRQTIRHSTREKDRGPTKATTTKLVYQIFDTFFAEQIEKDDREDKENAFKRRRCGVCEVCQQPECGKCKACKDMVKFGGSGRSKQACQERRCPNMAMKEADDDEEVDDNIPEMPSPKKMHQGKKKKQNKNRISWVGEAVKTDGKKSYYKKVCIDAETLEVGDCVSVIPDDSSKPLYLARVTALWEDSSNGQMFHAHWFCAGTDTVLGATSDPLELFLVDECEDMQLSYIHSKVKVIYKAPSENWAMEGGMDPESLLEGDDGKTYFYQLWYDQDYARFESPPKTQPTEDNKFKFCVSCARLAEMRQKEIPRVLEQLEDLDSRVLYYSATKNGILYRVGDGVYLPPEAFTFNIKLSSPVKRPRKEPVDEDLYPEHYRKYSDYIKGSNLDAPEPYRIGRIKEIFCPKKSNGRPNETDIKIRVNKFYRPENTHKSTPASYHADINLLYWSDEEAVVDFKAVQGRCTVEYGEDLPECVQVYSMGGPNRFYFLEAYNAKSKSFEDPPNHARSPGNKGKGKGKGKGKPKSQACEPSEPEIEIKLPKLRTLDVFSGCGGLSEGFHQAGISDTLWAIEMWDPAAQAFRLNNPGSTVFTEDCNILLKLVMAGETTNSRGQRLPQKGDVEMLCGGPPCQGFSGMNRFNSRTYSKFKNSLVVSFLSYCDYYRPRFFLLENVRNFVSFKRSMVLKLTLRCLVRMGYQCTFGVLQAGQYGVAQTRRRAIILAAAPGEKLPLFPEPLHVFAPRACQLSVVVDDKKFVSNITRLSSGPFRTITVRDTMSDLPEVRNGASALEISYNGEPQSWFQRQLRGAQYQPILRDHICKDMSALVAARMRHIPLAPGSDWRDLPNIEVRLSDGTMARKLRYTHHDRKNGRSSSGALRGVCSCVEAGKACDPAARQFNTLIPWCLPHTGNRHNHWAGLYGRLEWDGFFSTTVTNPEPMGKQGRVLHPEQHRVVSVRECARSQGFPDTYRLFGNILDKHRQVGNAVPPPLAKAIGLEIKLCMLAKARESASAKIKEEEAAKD

Take `COc1cc2c(cc1OCCCN1CCCC1)nc(-c1ccc(C)o1)c1cc(CC3CCN(C)CC3)[nH]c12` [Compound 1-02, 8-methoxy-4-(5-methyl-2-furyl)-2-[(1-methyl-4-piperidyl)methyl]-7-(3-pyrrolidin-1-ylpropoxy)-1H-pyrrolo[3,2-c]quinoline]: the GI50 fell in the range of 100 to 1000 nM in experiment [1] (Homo sapiens); 1 to 10 µM in experiment [2]; 1000 to 10000 nM in experiment [3] (Homo sapiens); 100 to 1000 nM in experiment [4]; 1000 to 10000 nM in experiment [5] (Homo sapiens); 100 to 1000 nM in experiment [6]. Also, the 50% inhibitory concentration (IC50) on human DNMT1 and against human G9a enzyme was 100 to 500 nM in each case.

On to `COc1cc2c(cc1OCCCN1CCCC1)nc(-c1ccc(C)o1)c1cc(CC3CCN(C(C)C)CC3)[nH]c12` [Compound 1-03, 2-[(1-isopropyl-4-piperidyl)methyl]-8-methoxy-4-(5-methyl-2-furyl)-7-(3-pyrrolidin-1-ylpropoxy)-1H-pyrrolo[3,2-c]quinoline], for which the GI50 in experiment [1] (Homo sapiens) lay within 100 to 1000 nM; in experiment [3] (Homo sapiens), 1000 to 10000 nM; in experiment [5] (Homo sapiens), 1000 to 10000 nM; in experiment [6], 1000 to 10000 nM. Also, the figures for the half-inhibitory concentration (IC50) against human DNMT1 and on human G9a enzyme were 500 to 1000 nM and 100 to 500 nM, respectively.

As for `CCc1ccc(-c2nc3cc(OCCCN4CCCC4)c(OC)cc3c3[nH]c(CC4CCN(C)CC4)cc23)o1` [Compound 1-04], the GI50 is 100 to 1000 nM in experiment [1], 1000 to 10000 nM in experiment [3], 1000 to 10000 nM in experiment [5] and 100 to 1000 nM in experiment [6]. The figures for the 50% inhibitory concentration (IC50) at human DNMT1 and against human G9a enzyme were 500 to 1000 nM and 100 to 500 nM, respectively.

Consider `COc1cc2c3c(c(-c4ccc(C)o4)nc2cc1OCCCN1CCCC1)CCC(CC1CCN(C)CC1)N3` (stereo not shown) [Compound 2-06, 9-methoxy-5-(5-methyl-2-furyl)-2-[(1-methyl-4-piperidyl)methyl]-8-(3-pyrrolidin-1-ylpropoxy)-1,2,3,4-tetrahydrobenzo[h][1,6]naphthyridine], for which the GI50 in experiment [1] (Homo sapiens) was 1000 to 10000 nM; in experiment [3] (Homo sapiens) it was not below 10000 nM; in experiment [5] (Homo sapiens) it was not below 10000 nM; in experiment [6], 1000 to 10000 nM. The IC50 against human DNMT1 was 100 to 500 nM; against human G9a enzyme it was less than 100 nM.

Regarding `COc1cc2c3c(c(-c4ccc(C)o4)nc2cc1OCCCN1CCCC1)CCC(CC1CCN(C2CC2)CC1)N3` (stereo not shown) [Compound 2-07, 2-[(1-cyclopropyl-4-piperidyl)methyl]-9-methoxy-5-(5-methyl-2-furyl)-8-(3-pyrrolidin-1-ylpropoxy)-1,2,3,4-tetrahydrobenzo[h][1,6]naphthyridine], the GI50 in experiment [1] (Homo sapiens), in experiment [3] (Homo sapiens), in experiment [5] (Homo sapiens) and in experiment [6] was 1000 to 10000 nM each time. The figures for the IC50 against human DNMT1 and against human G9a enzyme were 500 to 1000 nM and less than 100 nM, respectively.

With `COc1cc2c3c(c(-c4ccc(C)o4)nc2cc1OCCCN1CCCC1)CCC(CC1CCN(C(C)C)CC1)N3` (stereo not shown) [Compound 2-08, 2-[(1-isopropyl-4-piperidyl)methyl]-9-methoxy-5-(5-methyl-2-furyl)-8-(3-pyrrolidin-1-ylpropoxy)-1,2,3,4-tetrahydrobenzo[h][1,6]naphthyridine], the 50% growth inhibitory concentration (GI50) in experiment [1] (Homo sapiens), in experiment [3] (Homo sapiens), in experiment [5] (Homo sapiens) and in experiment [6] was 1000 to 10000 nM throughout. The half-maximal inhibitory concentration (IC50) against human DNMT1 was 500 to 1000 nM; at human G9a enzyme, less than 100 nM.

`COc1cc2c3c(c(-c4ccc(C)o4)nc2cc1OCCCN1CCCC1)CCC(CC1CCN(C2CCCCC2)CC1)N3` (stereo not shown) [Compound 2-12, 2-[(1-cyclohexyl-4-piperidyl)methyl]-9-methoxy-5-(5-methyl-2-furyl)-8-(3-pyrrolidin-1-ylpropoxy)-1,2,3,4-tetrahydrobenzo[h][1,6]naphthyridine]: the concentration for 50% growth inhibition (GI50) in experiment [3] (Homo sapiens), in experiment [5] (Homo sapiens) and in experiment [6] was 100 to 1000 nM throughout. The IC50 was 500 to 1000 nM against human DNMT1 and less than 100 nM at human G9a enzyme.
